Measurements as given in BindingDB's records for doi:10.1021/jm00065a012 (University of Toledo, 1993).

Key:
[1] = Enzyme inhibition dissociation constant for choline acetyl transferase (ChAcT) was determined
[2] = target: High-affinity choline transporter 1 (Rattus norvegicus) (UniProt Q9JMD7); experiment: Inhibition of high affinity choline uptake at concentration of 1 uM
[3] = target: High-affinity choline transporter 1 (Rattus norvegicus) (UniProt Q9JMD7); experiment: Inhibition constant of high-affinity choline uptake

Sequence of High-affinity choline transporter 1 (Rattus norvegicus) (Q9JMD7 whole entry, looked up): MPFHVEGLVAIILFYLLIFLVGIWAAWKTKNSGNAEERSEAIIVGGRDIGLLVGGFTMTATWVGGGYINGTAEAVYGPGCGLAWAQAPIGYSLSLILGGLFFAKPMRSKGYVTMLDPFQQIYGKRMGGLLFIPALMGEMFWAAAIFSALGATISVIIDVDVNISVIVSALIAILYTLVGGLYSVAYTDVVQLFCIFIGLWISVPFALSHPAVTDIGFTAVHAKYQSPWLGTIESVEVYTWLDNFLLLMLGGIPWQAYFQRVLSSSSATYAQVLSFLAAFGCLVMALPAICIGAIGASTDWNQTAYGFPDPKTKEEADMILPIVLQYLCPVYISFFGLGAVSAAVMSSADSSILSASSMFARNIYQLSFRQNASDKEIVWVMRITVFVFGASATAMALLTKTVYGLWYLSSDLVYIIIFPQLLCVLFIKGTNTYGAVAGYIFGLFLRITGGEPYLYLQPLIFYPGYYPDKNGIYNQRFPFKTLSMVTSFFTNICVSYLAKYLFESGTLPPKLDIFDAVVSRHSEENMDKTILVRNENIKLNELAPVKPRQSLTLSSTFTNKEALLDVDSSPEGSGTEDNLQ

SMILES	Ki [1]	IC50 [2]	Ki [3]
C[N+](C)(C)c1cccc(O)c1O [(2,3-Dihydroxy-phenyl)-trimethyl-ammonium; iodide]	15000 µM	83 µM	60 µM
C[N+](C)(C)CC(O)c1ccc(O)c(O)c1 (stereo not given) [[2-(3,4-Dihydroxy-phenyl)-2-hydroxy-ethyl]-trimethyl-ammonium; iodide]	–	221 µM	130 µM
